The target of one test is T1, human PPARα receptor (Homo sapiens, UniProt Q07869).
T1 sequence (Q07869 239-466 limits assumed): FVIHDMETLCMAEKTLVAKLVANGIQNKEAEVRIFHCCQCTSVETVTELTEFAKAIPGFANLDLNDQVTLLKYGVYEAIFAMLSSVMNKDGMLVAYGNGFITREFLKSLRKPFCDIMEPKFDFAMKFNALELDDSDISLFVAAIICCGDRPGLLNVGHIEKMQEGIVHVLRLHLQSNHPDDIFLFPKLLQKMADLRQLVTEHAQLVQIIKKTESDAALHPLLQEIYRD
Briefly: PPARα transactivation luciferase reporter gene assay in HEK-293 cells. The note with it: upto 10 μM.

The target in test [1] is T2, protein tyrosine phosphatase-1b (PTP-1B) (Homo sapiens, UniProt P18031).
T2 construct: MDS Pharma, Korea (contract laboratory)
T2 sequence (P18031 1-435): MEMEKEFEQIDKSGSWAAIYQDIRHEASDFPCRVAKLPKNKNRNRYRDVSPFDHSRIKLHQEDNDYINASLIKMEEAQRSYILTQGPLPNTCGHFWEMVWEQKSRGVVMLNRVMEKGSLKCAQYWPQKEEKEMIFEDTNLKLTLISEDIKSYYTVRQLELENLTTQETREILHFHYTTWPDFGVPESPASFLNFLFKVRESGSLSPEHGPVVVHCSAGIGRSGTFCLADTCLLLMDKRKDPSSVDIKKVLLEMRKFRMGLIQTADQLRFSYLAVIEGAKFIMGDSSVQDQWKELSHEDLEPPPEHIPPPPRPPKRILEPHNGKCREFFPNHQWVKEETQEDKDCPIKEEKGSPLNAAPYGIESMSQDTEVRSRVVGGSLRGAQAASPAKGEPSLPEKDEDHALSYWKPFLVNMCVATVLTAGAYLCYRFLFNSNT
Briefly: PTP-1B activity (MDS Pharma). The format is biochemical. The procedure:
Transactivation activity against human PPARγ and PPARα receptors was determined using luciferase reporter gene assays in the Laboratory of CloneGen Biotechnology, Michigan, USA. Activities of protein tyrosine phosphatase-1b (PTP-1B) and adenosine mono phosphate activated kinase (AMPK) were evaluated at MDS Pharma, Korea. Evaluation of activity against human 11-Hydroxysteroid dehydrogenase-1 was outsourced to University of Edinburg, UK which used a cell based method.

For the molecule `O=S(=O)(Nc1cnc(Oc2cc3ccccc3cn2)c(Cl)c1)c1ccc(Cl)cc1Cl` [P1736], the PPARα transactivation result on human PPARα receptor is given as “did not activate”. For the same molecule, the “activity against PTP-1B” value in test [1] is “no significant activity”.
